As a reminder, the Kd is the concentration at which binding is half-saturated. A low value points to a tighter complex.

The values below come from patent publication US20180185520A1, “COLLAGEN IMAGING COMPOSTIONS” (Collagen Medical, LLC, priority 2015, published 2018).

For series [1], the target named is T1, human type I collagen (Homo sapiens, UniProt P02452+P08123).
T1 construct: purchased Advanced Biomatrix 5007-A
Nature of the series: Collagen binding assay, dried human collagen in microtiter plate. As to conditions: 37° C., pH 7.4. How it is done:
10 ml of a solution of 3 mg/ml of human type I collagen (VitroCol solution, Advanced Biomatrix, cat#5007-A) is dialyzed against 10 mM Phosphate (NaH2PO4), pH 4.2 at 4° C. with three changes of the dialysis buffer. The protein concentration is determined by liquid chromatography determination of hydroxyproline (P. Hutson, J. Chromatogr. B, 791 (2003) 427-430).
Ice-cold 1×PBS pH 10.8 is added to the collagen solution for a final collagen concentration of 10 μM, pH 7.4. Collagen solutions are gelled and dried down in the wells of a 96 well microtiter plate (Corning Polystyrene Flat Bottom, cat#3641). […] The final well content of gelled collagen is measured by determination of hydroxyproline and is around 180 μg/ml.
(§1) a serial dilution of 0.2 μM-30 μM of the peptide chelate is prepared in PBS, pH 7.4 ([…], of solution for each concentration). […] The concentration of free, unbound compound in the sample supernatants and the concentration of compound in the reserved (total) sample are determined by ICP-MS (Agilent 7500, gadolinium concentration). The concentration of compound bound to collagen is determined as [bound]=[total]−[unbound].
(§2) The binding of compounds to human, rat and dog collagen (5 μM) was measured over the concentration range 0.2-5 μM of Comp ID Nos.: 1-4. […]

The target of series [2] is T2, rat collagen (acid soluble, type I, rat tail) (Rattus norvegicus, UniProt P02454+P02466).
T2 construct: purchased Millipore Inc 08-115; host or cells: rat tail
Nature of the series: Collagen binding assay, dried rat collagen in microtiter plate. As to conditions: 37° C., pH 7.4. The protocol: 10 ml of a 3.79 mg/mL solution of rat collagen (acid soluble, type I, rat tail, Millipore Inc, cat#08-115) is dialyzed against 10 mM Phosphate (NaH2PO4), pH 4.2 at 4° C. with three changes of the dialysis buffer.
Ice-cold 1×PBS pH 10.8 is added to the collagen solution for a final collagen concentration of 10 μM, pH 7.4. Collagen solutions are gelled and dried down in the wells of a 96 well microtiter plate (Corning Polystyrene Flat Bottom, cat#3641). 70 μl of 10 μM collagen is aliquoted into each well in every other lane in the plate (48 wells) and the plate is incubated at 37° C. for 18 hours to form a gel and evaporate to dryness. […] The final well content of gelled collagen is measured by determination of hydroxyproline and is around 180 μg/ml.
as §1, §2

A short description of series [3]: Pharmacokinetics (rat), plasma gadolinium by ICP-MS. In kind it is in vivo, Sprague Dawley rats. Particulars: 1.3 umol/kg iv bolus in 80 mM sucrose, pH 7, plasma 2-90 minutes. How it is done: Compound ID No. 1 was formulated at pH 7 in 80 mM sucrose and administered to Sprague Dawley rats (n=2) at dose of 1.3 umol/kg using a bolus IV injection. Plasma was sampled at 2, 5, 15, 30, and 90 minutes post-injection and analyzed for gadolinium content using ICP-MS (FIG. 15).

In series [4] the test system is myocardium. In kind it is in vivo. Particulars: Compound ID No. 1 7.5 μmol/kg (canine) vs EP-3600 12.3 μmol/kg (pig). How it is done: To mimic severe ischemia, a canine model was used in which an inflatable variable vascular occluder was placed around the left anterior descending coronary artery (LAD) to allow occlusion and reperfusion. Imaging was performed on a 3T clinical scanner 4 days after implantation of the occluder. The conventional saturation recovery pulse sequence for stress perfusion imaging was compared with a segmented inversion method. The purpose of the segmented inversion method was to leverage the steady-state properties of Compound ID No. 1. This segmented inversion recovery pulse sequence provides greater T1 weighting, higher spatial resolution, and greater myocardial tissue contrast. Additionally, since imaging is delayed, the entire heart can be imaged. After baseline […] scanning, the balloon was inflated. […]
To assess relative perfusion, labeled microspheres were administered at 3 timepoints in the study. […] At autopsy under ultraviolet light, the hypo-perfused myocardium was differentiated from normal myocardium due to the lack of fluorescence in the hypo-perfused tissue. Based on the fluorescence, a sample of the ischemic territory and a sample of the remote myocardium were taken for ex vivo analysis. These tissue samples were weighed, digested in nitric acid, and analyzed for the elements La, Au, Lu (the three microsphere injections) and gadolinium (Compound ID No. 1) using ICP-MS. […]

T1 sequence (P02452 162-1218 limits assumed): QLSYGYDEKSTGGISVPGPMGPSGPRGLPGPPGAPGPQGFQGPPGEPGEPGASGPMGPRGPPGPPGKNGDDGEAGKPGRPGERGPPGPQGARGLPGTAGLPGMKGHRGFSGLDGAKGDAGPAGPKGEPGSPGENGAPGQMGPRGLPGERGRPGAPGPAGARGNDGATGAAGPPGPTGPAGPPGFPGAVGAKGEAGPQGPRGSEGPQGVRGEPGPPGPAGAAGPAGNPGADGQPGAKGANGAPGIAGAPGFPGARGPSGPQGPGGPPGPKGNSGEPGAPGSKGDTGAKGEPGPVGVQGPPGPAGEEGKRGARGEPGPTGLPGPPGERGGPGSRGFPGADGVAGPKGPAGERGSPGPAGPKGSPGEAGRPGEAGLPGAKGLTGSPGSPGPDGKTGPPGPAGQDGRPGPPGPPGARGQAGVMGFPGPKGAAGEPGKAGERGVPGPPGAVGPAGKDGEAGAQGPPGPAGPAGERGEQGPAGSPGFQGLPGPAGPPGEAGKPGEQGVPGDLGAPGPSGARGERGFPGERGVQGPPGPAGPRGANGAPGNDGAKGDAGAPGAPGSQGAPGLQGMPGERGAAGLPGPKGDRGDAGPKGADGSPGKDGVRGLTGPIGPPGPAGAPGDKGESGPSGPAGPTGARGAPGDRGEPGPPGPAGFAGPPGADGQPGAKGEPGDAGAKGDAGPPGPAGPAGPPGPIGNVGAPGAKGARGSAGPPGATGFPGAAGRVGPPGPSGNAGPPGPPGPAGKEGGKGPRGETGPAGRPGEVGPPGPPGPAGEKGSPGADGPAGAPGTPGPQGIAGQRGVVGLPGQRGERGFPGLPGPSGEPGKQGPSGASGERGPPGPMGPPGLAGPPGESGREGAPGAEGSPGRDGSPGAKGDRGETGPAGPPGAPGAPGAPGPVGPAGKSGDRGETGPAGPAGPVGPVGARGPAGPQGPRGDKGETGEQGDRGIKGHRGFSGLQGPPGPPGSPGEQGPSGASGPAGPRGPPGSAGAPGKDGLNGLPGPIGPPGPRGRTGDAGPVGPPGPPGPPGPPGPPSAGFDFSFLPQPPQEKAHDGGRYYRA
T1 sequence (P08123 80-1119 limits assumed): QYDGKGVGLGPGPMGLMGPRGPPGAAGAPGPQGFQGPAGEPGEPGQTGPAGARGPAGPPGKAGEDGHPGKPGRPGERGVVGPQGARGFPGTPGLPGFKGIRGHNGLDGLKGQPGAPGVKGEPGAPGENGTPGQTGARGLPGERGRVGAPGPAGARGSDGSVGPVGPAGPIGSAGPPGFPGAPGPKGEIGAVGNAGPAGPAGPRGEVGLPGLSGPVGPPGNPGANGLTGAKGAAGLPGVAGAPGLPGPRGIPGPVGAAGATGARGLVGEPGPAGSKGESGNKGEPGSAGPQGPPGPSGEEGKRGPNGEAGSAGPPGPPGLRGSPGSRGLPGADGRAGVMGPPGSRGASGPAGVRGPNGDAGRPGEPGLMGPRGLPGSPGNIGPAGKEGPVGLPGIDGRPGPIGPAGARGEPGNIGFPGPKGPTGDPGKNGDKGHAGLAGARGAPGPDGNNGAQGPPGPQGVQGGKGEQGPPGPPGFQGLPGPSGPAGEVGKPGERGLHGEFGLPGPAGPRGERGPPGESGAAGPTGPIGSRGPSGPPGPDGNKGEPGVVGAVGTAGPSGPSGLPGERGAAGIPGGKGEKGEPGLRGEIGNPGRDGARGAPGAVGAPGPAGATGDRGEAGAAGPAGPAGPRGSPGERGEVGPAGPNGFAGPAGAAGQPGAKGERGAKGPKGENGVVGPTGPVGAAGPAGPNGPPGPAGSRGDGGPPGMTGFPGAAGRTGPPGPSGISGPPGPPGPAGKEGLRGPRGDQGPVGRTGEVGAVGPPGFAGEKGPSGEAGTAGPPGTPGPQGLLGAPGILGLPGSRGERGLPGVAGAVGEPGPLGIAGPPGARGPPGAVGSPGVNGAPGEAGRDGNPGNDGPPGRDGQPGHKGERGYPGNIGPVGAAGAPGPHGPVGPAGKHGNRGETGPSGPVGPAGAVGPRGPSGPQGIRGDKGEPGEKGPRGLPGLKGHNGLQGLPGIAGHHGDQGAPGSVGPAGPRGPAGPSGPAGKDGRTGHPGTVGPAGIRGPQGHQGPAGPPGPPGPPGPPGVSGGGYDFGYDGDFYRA

In the case of `CC(C)C[C@H](NC(=O)[C@@H]1CSSC[C@H](NC(=O)[C@H](Cc2c[nH]cn2)NC(=O)[C@H](Cc2c[nH]c3ccccc23)NC(=O)[C@H](CCCCNC(=O)CC[C@H](C(=O)O)N2CCN(CC(=O)O)CCN(CC(=O)O)CCN(CC(=O)O)CC2)NC(=O)CNC(=O)CC[C@H](C(=O)O)N2CCN(CC(=O)O)CCN(CC(=O)O)CCN(CC(=O)O)CC2)C(=O)N[C@@H]([C@@H](C)O)C(=O)N[C@@H]([C@@H](C)O)C(=O)N[C@@H](CCCCNC(=O)CC[C@H](C(=O)O)N2CCN(CC(=O)O)CCN(CC(=O)O)CCN(CC(=O)O)CC2)C(=O)N[C@@H](Cc2ccccc2)C(=O)N2CCC[C@H]2C(=O)N[C@@H](Cc2c[nH]cn2)C(=O)N[C@@H](Cc2c[nH]cn2)C(=O)N[C@@H](Cc2ccc(O)cc2)C(=O)N1)C(=O)N[C@@H](Cc1ccc(O)cc1)C(=O)N[C@@H](Cc1ccc(-c2ccccc2)cc1)C(N)=O` [Compound ID No. 1], the dissociation constant (Kd) in series [1] was 3.8 µM; in series [2], 21.1 µM. Also, in series [3], the pharmacokinetic profile result was “rapid initial blood clearance”. Besides, the “ΔCNR relative to EP-3600 (fold higher)” value in series [4] is reported as 3 to 4 fold.
